Tests used:
[1] = tested on: G93A mutant SOD1 mouse-derived fibroblasts; assay: Real-time qRT-PCR analysis of ALS animal model-derived fibroblasts; format: cell-based; conditions: low or high concentration halofuginone for 24 hours; elevation vs Non-TG fibroblasts (FIG. 5a)
Source text: Specifically, primary fibroblasts were isolated from skeletal muscle of 120-day-old non-transformed or G93A mutant SOD1 transgenic mice of Example 4. The excised tissue was placed on 100-mm culture dishes containing HBSS (Hanks' Balanced Salt Solution; Gibco, cat #14175095) and penicillin-streptomycin (Cat #15070-063, Thermo Fisher Scientific) without calcium and magnesium. Muscle tissue was cut on ice blocks. Then, the tissue was cut into 1 mm pieces and enzymatically reacted with 0.2% IV type collagenase (Sigma) at 37° C. for 1 hour. The enzymatic reaction was stopped by the addition of 10 ml of FBS (Gibco). […]
Specifically, total RNA was isolated from C2C12 cells in Example 1, fibroblasts in Example 5, and the lumbar spinal cord of mice in Example 6 using the FavorPrep™ Tri-RNA Reagent (Favorgen). […] The concentration of total RNA was measured at 260 nm absorbance using a spectrophotometer (NanoDrop Spectrophotometer ND-2000, Thermo Scientific). cDNA was synthesized from 1 μg of total RNA using the ReverTra Ace-α™ (Toyobo) according to the manufacturers protocol. Quantitative RT-PCR was performed using the SYBR Green ExcelTaq™ 2× Fast Q-PCR Master Mix (TQ1200, Smobio) on a thermocycler (CFX Connect Real-Time PCR Detection System, BIO-RAD) with the primers listed in Table 3 below. […]

C2C12 cells = assay: Western blot analysis of C2C12 myoblasts (TGF-β1 stimulation, halofuginone treatment); format: cell-based, mouse
Experimental: Specifically, C2C12 cells (CRL-1772) were purchased from the American Type Culture Collection (ATCC) and maintained in DMEM medium (Welgene) containing 10% (v/v) fetal bovine serum (FBS; Gibco) and 1% penicillin-streptomycin (P/S; Gibco) at 37° C. under 5% CO2 conditions. The C2C12 cells were seeded in 6-well plates at a density of 3×10^5 cells per well and allowed to adhere for 24 hours. Subsequently, the medium was replaced with serum-free medium after 24 hours, followed by stimulation with 5 ng/ml rhTGF-β1 (recombinant human TGF-β1; R&D Systems). After stimulation, the cells were treated with various concentrations (0 [control], or 1, 2.5, 5 [low dose], 10 [high dose], 20, 50, 100 ng/ml) of halofuginone (Sigma) in serum-free medium for 24 hours.
Specifically, the lumbar spinal cord or knee joint of the mouse of Example 6 was separated and immediately frozen at −80° C. Each lumbar spinal cord or knee joint was then homogenized and chemically treated to obtain cells. The chemically treated cells, the C2C12 cells of Example 1 or the fibroblasts of Example 5 were dissolved in a RIPA buffer (Thermo, MA, USA) with a protease inhibitor and a phosphatase inhibitor (Roche, IN, USA) and incubated on ice for 30 minutes. After centrifugation of the lysate at 13,000 rpm at 4° C. for 20 min, insoluble substances were removed. Protein concentrations were measured by BCA analysis (Pierce Biotechnology). Equal volumes of cell lysate were loaded onto SDS-PAGE gels for electrophoresis, and transferred onto nitrocellulose membranes (Amersham Protran 0.2 um NC, Amersham Pharmacia Biotech, Piscataway, NJ, USA). The membranes were then blocked with 5% (w/v) skimmilk in 1×TBST for 1 h at room temperature. After blocking, anti-RB-actin antibody (1:5000; Santa Cruz, cat #sc47778), anti-Smad2 antibody (1:1000; Cell Signaling, cat #5339), anti-p-Smad2 antibody (1:1000; Cell Signaling, cat #3108), anti-TGF-β1 antibody (1:1000; Santa Cruz, cat #sc130348), anti-α-SMA antibody (1:10000; abcam cat #ab7817), anti-MyoD antibody (1:1000; cat #sc377460), anti-collagen|antibody (1:1000; abcam cat #ab21286), anti-cleaved caspase-3 antibody (1:1000; Cell Signaling, cat #9661), anti-bax antibody (1:500; Santa Cruz, cat #sc493), anti-bcl2 antibody (1:1000; Novus Biologics, cat #NB100-56098), anti-ChAT antibody (1:1000; Millipore, cat #AB144) were treated and incubated overnight at 4° C. Subsequently, membranes were washed several times with 1×TBST and incubated with horseradish peroxidase-conjugated secondary antibodies (anti-mouse, rabbit or goat, 1:5000; GE Healthcare) in blocking buffer for 1 h at room temperature (RT). The membranes were then washed, briefly incubated with the SuperSignal West Pico Plus Chemical Substructure (Pierce Biotechnology) according to the manufacturer's procedure, and quantified with an image analyzer (Amersham Pharmacia Biotech, Piscataway, NJ, USA). β-actin was used as an internal control group. The concentration measurement of protein intensity was quantified using Image J (National Institutes of Health).
Specifically, after treating C2C12 cells with TGF-β1 for 24 hours as in Example 1, real-time qRT-PCR was performed in the same manner as in Example 11 to confirm TGF-β1, 2 and 3, α-SMA and MyoD mRNA expression (FIG. 2a), and Western blot analysis was performed in the same manner as in Example 12 to confirm autocrine expression of TGF-β1 and MyoD protein and α-SMA (FIG. 2b).
Specifically, C2C12 cells were treated with halofuginone after TGF-β1 stimulation or no stimulation in the same manner as described in Example 2, and cell viability analysis was performed through CCK-8 analysis (FIGS. 3a and 3b), and Western blot analysis was performed in the same manner as described in Example 12 to confirm autocrine expression of p-Smad2, Smad2, TGF-β1, MyoD, collagen I protein and α-SMA (FIG. 3c). […]

[2] = halofuginone 5 ng/ml and 10 ng/ml, 24 h after TGF-β1 stimulation (FIG. 3c)

## O=C(C[C@H]1NCCC[C@@H]1O)Cn1cnc2cc(Br)c(Cl)cc2c1=O (racemic) [halofuginone]
[1]
  elevated mRNA level of TGF-β, α-SMA and Col-I: attenuated
C2C12 cells; [2]
  decrease in MyoD protein level by TGF-β1 stimulation: significantly recovered
  increase in TGF-β1 protein level by TGF-β1 stimulation: significantly reduced
  increase in collagen I protein level by TGF-β1 stimulation: significantly reduced
  increase in p-Smad2/Smad2 ratio by TGF-β1 stimulation: significantly reduced
  increase in α-SMA protein level by TGF-β1 stimulation: significantly reduced
C2C12 cells; low or high concentration halofuginone, 24 h after TGF-β1 stimulation (FIG. 4b)
  TGF-β1, α-SMA, MyoD and collagen I protein expression, compared with the mRNA result: the same

— patent publication US20240390377A1, “COMPOSITION FOR THE PREVENTION OR TREATMENT OF NEURODEGENERATIVE OR MOTOR NEURON DISEASES COMPRISING HALOFUGINONE AS AN ACTIVE INGREDIENT” (CURAMYS CO., LTD., priority 2022, published 2024)
